Values quoted from earlier work in paper PMC7191262 (Molecular pharmaceutics, 2020).
Where two headings read alike, the source gives them in different places. *1 amine or outer side, *2 acyl side, *3 side chain or, on linkers, in order; H or OH if unused. Where a SMILES comes first, the peptide text is derived from it. Bridges are numbered along the chain shown (N, C = ends). [ ]: non-standard residue; d: D form. The star is where a group is joined. X1 = CN(C)c1ccc2c(c1)Oc1cc(N(C)C)ccc1C2=C1C=CC(=NC(=S)NC[C@](C)(O)C[C@H](N[*:1])C(=O)[*:2])C=C1C(=O)O; Trp(2-yl) = O=C([C@H](Cc1c([*:3])[nH]c2ccccc12)N[*:1])[*:2]; Dolaproine = CO[C@@H]([C@@H]1CCCN1)[C@@H](C)C(=O)O; Dil = CC[C@H](C)[C@H](NC)[C@@H](CC(=O)O)OC; cisHyp = O=C(O)[C@@H]1C[C@H](O)CN1; X2 = C[C@@H](N*)[C@@H](O)c1ccccc1; NMeV = CN[C@H](C(=O)O)C(C)C

How the values were obtained:
[1] = cargo previously delivered by pHLIP
[2] = pHLIP with no cargo; ref [33], [36], [39]
[3] = ref Moshnikova et al., 2013 (Ref [17])

For `CC[C@H](C)[C@@H]([C@@H](CC(=O)N1CCC[C@H]1[C@H](OC)[C@@H](C)C(=O)N[C@H](C)[C@@H](O)c1ccccc1)OC)N(C)C(=O)[C@@H](NC(=O)[C@@H](NC)C(C)C)C(C)C` [Monomethyl Auristatin E] (H-[NMeV]V[Dil][Dolaproine]-X2), the LogP/LogD ([1]; ref Burns et al., 2015 (Ref [21])) is given as 2.2.
For `CC[C@H](C)[C@@H]([C@@H](CC(=O)N1CCC[C@H]1[C@H](OC)[C@@H](C)C(=O)N[C@@H](Cc1ccccc1)C(=O)O)OC)N(C)C(=O)[C@@H](NC(=O)[C@@H](NC)C(C)C)C(C)C` [Monomethyl Auristatin F] (H-[NMeV]V[Dil][Dolaproine]F-OH), the LogP/LogD ([1]; ref Burns et al., 2017 (Ref [20])) is given as 0.7.
For `C[C@@H]1NC(=O)[C@H](C[C@@](C)(O)CNC(=S)N=C2C=CC(=C3c4ccc(N(C)C)cc4Oc4cc(N(C)C)ccc43)C(C(=O)O)=C2)NC(=O)[C@@H]2Cc3c([nH]c4ccccc34)SC[C@H](NC(=O)[C@@H]([C@H](C)O)NC1=O)C(=O)N1C[C@@H](O)C[C@H]1C(=O)N[C@@H](C)C(=O)N2` [Phalloidin-TRITC] (cyclo(A[dT]C[cisHyp]A[Trp(2-yl)][X1]); thioether 3-6), the LogP/LogD ([1]; ref Reshetnyak et al., 2006 (Ref [24])) is listed as −0.05.
For Amanitin [Amanitin (Lc-SMPT linker)], the LogP/LogD [1, 3] is listed as 0.2.
In the case of Amanitin [Amanitin (SPDP linker)], the LogP/LogD [1, 3] is listed as −0.2.
In the case of “GGEQNPIYWARYADWLFTTPLLLLDLALLVDADEGTC(NPys)G [pHLIP]”, the “characteristic time for insertion” value [2] is listed as ~ 40 seconds.
